# Measurements: publication PMC5430962, “Retro-inverso Urokinase Receptor Antagonists for the Treatment of Metastatic Sarcomas” (Scientific Reports, 2017)
# [ ]: non-standard residue; d: D form. Aib = CC(C)(N)C(=O)O
# Legend:
# HT1080 cells = assay: HT1080 matrigel invasion toward 10% FBS in Boyden chambers; assay type: cell-based, human; conditions: 10 nM peptide plus 10% FBS, 6 hr, means of three independent experiments in triplicate
# Description: Cell migration in Boyden chambers was carried out for 4 hr at 37 °C in humidified air with 5% CO2, as described. Briefly, cell suspension (1 × 10^5 viable cells/mL serum free medium) was seeded in each upper chamber. Lower chambers were filled with DMEM alone, DMEM containing RI peptides, 10 nM fMLF, or 10% FBS with/without RI peptides. The two compartments were separated by 8 μm pore size polycarbonate filters (Neuroprobe) coated with 2.5 µg/mL vitronectin (Corning). For the invasion assays, 8 μm pore size filters were coated with 50 μg/filter matrigel (BD Biosciences) as previously described[40] and cells (3 × 10^4 viable cells/well) were allowed to invade matrigel for 6 hr at 37 °C, 5% CO2. In all cases, at the end of the assay, cells on the lower filter surface were fixed with ethanol, stained with haematoxylin and 10 random fields/filter were counted at 200× magnification. Each experiment was performed three times in triplicate.
# HUVECs = assay: Endothelial cell tube formation on matrigel; assay type: cell-based, human; conditions: 10 nM, three experiments in duplicate
# Description: The formation of vascular-like structures was assessed on a matrigel basement membrane matrix preparation. HUVEC (4 × 10^4 cells/well) were suspended in 300 µl pre-warmed serum-free medium. Diluents or effectors were added to the cell suspension prior to seeding cells on polymerized growth factor-reduced matrigel (100 µl/well) (Becton Dickinson). Assays were carried out for 6 hr at 37 °C in humidified air with 5% CO2 as described. To quantify tube formation, five random areas/well at 100× magnification were imaged and the number of tubes formed by cord-like structures exceeding 100 μm in length, measured using Axiovision 4.4 software (Carl Zeiss), were counted. The experiments were performed three times in duplicate.
# [1] = Stability in bovine serum, read out as inhibition of HT1080 migration (xCELLigence); assay type: in vitro ADME; conditions: pre-incubated at 10^−3 M in bovine serum 18 hr at 37 °C, tested at 10 nM on HT1080 migration 18 hr, quadruplicate
# Description: A major limitation of peptides for use as therapeutics is susceptibility to degradation by serum proteases. The stability of RI-3 in bovine and human serum was investigated by comparing inhibitory activities of RI-3 and RI-3 pre-incubated at 10^−3 M with serum for 18 hr at 37 °C on cell migration and invasion. HT1080 cells were allowed to migrate for 18 hr toward DMEM (CTRL), 10% FBS (None), 10% FBS plus 10 nM RI-3 or 10% FBS with 10 nM RI-3 pre-incubated in bovine serum. […] The stability of RI-3 in human serum was investigated in cell invasion experiments performed in Boyden chambers. […]
# (a) HT1080 cells were allowed to migrate in real time for 18 hr toward DMEM (CTRL), or 10% FBS in the absence (None) or the presence of 10 nM RI-3 or 10 nM RI-3 pre-incubated at 10^−3 M in bovine serum for 18 hr at 37 °C. […] The basal value assessed in the absence of FBS (CTRL) was taken as 100% and all values were reported relative to that. Data are the means ± SD three independent experiments, performed in triplicate. *Indicates statistical significance calculated against None, with *P < 0.05, **P < 0.0001. (c) Cell proliferation of HT1080 cells assessed by MTS assay. […] At the indicated times, the absorbance of adherent cells was assessed with a microplate reader. […]
# cell proliferation = assay: Cell proliferation, xCELLigence RTCA; assay type: cell-based; conditions: 10 µM in growth medium, 85 hr, replaced every 24 hr
# Description: Cell proliferation was assessed using the xCELLigence RTCA technology as described. Cells (2 × 10^3/well) were seeded in E-well plates in growth medium and left to growth for 85 hr in the presence or the absence of 10 µM RI-3. For MTS assay, cells seeded on plates in growth medium plus/minus 10 µM RI-3, were allowed to proliferate at 37 °C in 5% CO2 and the absorbance of adherent cells stained with tetrazolium/formazan was assessed with a microplate reader. In both cases, medium with or without RI-3 was replaced every 24 hr. Data are the means ± SD of three independent experiments, performed in triplicate.
# [2] = tested on: chondrosarcoma Sarc cells; assay: Matrigel invasion kinetics, xCELLigence RTCA, Sarc; assay type: cell-based, human; conditions: 10 nM, 10% FBS, 20 hr
# Description: This assay was performed using E-well plates and the xCELLigence RTCA technology as described. Bottom wells were coated with 20 µg/well matrigel diluted in serum free medium. Matrigel was allowed to polymerize for 1 hr at 37 °C prior to seeding cells (1 × 10^4 cells/well) suspended in growth medium plus/minus RI peptides. Cells that cross matrigel adhere to the bottom of plates causing impedance changes that are proportional to the number of invading cells, and are expressed as a cell index value. Matrigel invasion was monitored for 20 hr. The experiments were performed three times in quadruplicate.
substance,measurement,setting,value
Ac-[dY][dR][Aib][dR]-NH2 (SMILES CC(=O)N[C@H](Cc1ccc(O)cc1)C(=O)N[C@H](CCCNC(=N)N)C(=O)NC(C)(C)C(=O)N[C@H](CCCNC(=N)N)C(N)=O) [RI-3],reduction of the extent of cell invasion (matrigel),HT1080 cells,51%
same,reduction of VEGF-dependent endothelial capillary-like structures,"HUVECs; EBM plus 40 ng/mL VEGF165, 6 hr on matrigel",75%
same,reduction of FBS-dependent endothelial capillary-like structures,"HUVECs; EBM plus 10% FBS, 6 hr on matrigel",61%
same,"cell index curves of migrating cells, peptide vs peptide pre-incubated in bovine serum",[1],overlapping curves
same,effect on cell proliferation and doubling times (xCELLigence),cell proliferation,no difference was apparent
same,reduction of matrigel invasion (slope of cell index),[2],47%
